Laboratory results taken from the CheMixHub ionic liquid set.

Experiment: xn = mol fraction of the nth substance listed

CCCC[n+]1ccn(C)c1.[Cl-] + O
Conditions	electrical conductivity [S/m]	viscosity [mPa·s]
278.15 K, 100 kPa, x1 = 9.568e-05	–	1.532
278.15 K, 100 kPa, x1 = 0.000202	–	1.539
278.15 K, 100 kPa, x1 = 0.0003808	–	1.545
278.15 K, 100 kPa, x1 = 0.0005628	–	1.555
278.15 K, 100 kPa, x1 = 0.0007322	–	1.561
278.15 K, 100 kPa, x1 = 0.0009239	–	1.57
278.15 K, 100 kPa, x1 = 0.001099	–	1.576
278.15 K, 100 kPa, x1 = 0.001363	–	1.587
278.15 K, 100 kPa, x1 = 0.001909	–	1.608
283.15 K, 100 kPa, x1 = 9.568e-05	–	1.314
283.15 K, 100 kPa, x1 = 0.000202	–	1.318
283.15 K, 100 kPa, x1 = 0.0003808	–	1.325
283.15 K, 100 kPa, x1 = 0.0005628	–	1.332
283.15 K, 100 kPa, x1 = 0.0007322	–	1.339
283.15 K, 100 kPa, x1 = 0.0009239	–	1.348
283.15 K, 100 kPa, x1 = 0.001099	–	1.355
283.15 K, 100 kPa, x1 = 0.001363	–	1.365
283.15 K, 100 kPa, x1 = 0.001909	–	1.377
288.15 K, 100 kPa, x1 = 9.568e-05	–	1.146
288.15 K, 100 kPa, x1 = 0.000202	–	1.149
288.15 K, 100 kPa, x1 = 0.0003808	–	1.155
288.15 K, 100 kPa, x1 = 0.0005628	–	1.161
288.15 K, 100 kPa, x1 = 0.0007322	–	1.168
288.15 K, 100 kPa, x1 = 0.0009239	–	1.178
288.15 K, 100 kPa, x1 = 0.001099	–	1.18
288.15 K, 100 kPa, x1 = 0.001363	–	1.189
288.15 K, 100 kPa, x1 = 0.001909	–	1.198
293.15 K, 100 kPa, x1 = 0.0003808	–	1.017
293.15 K, 100 kPa, x1 = 0.0005628	–	1.021
293.15 K, 100 kPa, x1 = 0.0007322	–	1.027
293.15 K, 100 kPa, x1 = 0.0009239	–	1.033
293.15 K, 100 kPa, x1 = 0.001099	–	1.036
293.15 K, 100 kPa, x1 = 0.001363	–	1.044
293.15 K, 100 kPa, x1 = 0.001909	–	1.053
293.15 K, 101 kPa, x2 = 0.4982	–	240
293.15 K, 101 kPa, x2 = 0.9502	–	2.57
298.15 K, 100 kPa, x1 = 0.000202	–	0.9
298.15 K, 100 kPa, x1 = 0.0003808	–	0.904
298.15 K, 100 kPa, x1 = 0.0005628	–	0.908
298.15 K, 100 kPa, x1 = 0.0007322	–	0.913
298.15 K, 100 kPa, x1 = 0.0009239	–	0.918
298.15 K, 100 kPa, x1 = 0.001099	–	0.922
298.15 K, 100 kPa, x1 = 0.001363	–	0.928
298.15 K, 100 kPa, x1 = 0.001909	–	0.936
298.15 K, 101 kPa, x1 = 0.009814	3.03	–
298.15 K, 101 kPa, x2 = 0.8034	3.08	12.6
298.15 K, 101 kPa, x2 = 0.9259	6.29	–
298.15 K, 101 kPa, x2 = 0.9476	6.24	–
298.15 K, 101 kPa, x2 = 0.9647	5.76	–
298.15 K, 101 kPa, x2 = 0.9787	4.73	–
298.15 K, 101.3 kPa, x1 = 8.71e-06	0.00583	–
298.15 K, 101.3 kPa, x1 = 1.208e-05	0.00794	–
298.15 K, 101.3 kPa, x1 = 1.485e-05	0.00965	–
298.15 K, 101.3 kPa, x1 = 1.707e-05	0.01101	–
298.15 K, 101.3 kPa, x1 = 1.937e-05	0.01241	–
298.15 K, 101.3 kPa, x1 = 2.164e-05	0.0138	–
298.15 K, 101.3 kPa, x1 = 2.397e-05	0.0152	–
298.15 K, 101.3 kPa, x1 = 2.6e-05	0.0164	–
298.15 K, 101.3 kPa, x1 = 2.824e-05	0.0177	–
298.15 K, 101.3 kPa, x1 = 3.029e-05	0.019	–
298.15 K, 101.3 kPa, x1 = 0.0009038	–	0.911
298.15 K, 101.3 kPa, x1 = 0.000929	–	0.908
298.15 K, 101.3 kPa, x1 = 0.001008	–	0.919
298.15 K, 101.3 kPa, x1 = 0.001815	–	0.928
298.15 K, 101.3 kPa, x1 = 0.00182	–	0.935
298.15 K, 101.3 kPa, x1 = 0.001824	–	0.928
298.15 K, 101.3 kPa, x1 = 0.003602	–	0.971
303.15 K, 100 kPa, x1 = 9.568e-05	–	0.803
303.15 K, 100 kPa, x1 = 0.000202	–	0.806
303.15 K, 100 kPa, x1 = 0.0003808	–	0.81
303.15 K, 100 kPa, x1 = 0.0005628	–	0.813
303.15 K, 100 kPa, x1 = 0.0007322	–	0.817
303.15 K, 100 kPa, x1 = 0.0009239	–	0.82
303.15 K, 100 kPa, x1 = 0.001099	–	0.823
303.15 K, 100 kPa, x1 = 0.001363	–	0.828
303.15 K, 100 kPa, x1 = 0.001909	–	0.837
303.15 K, 101 kPa, x2 = 0.8999	–	3.82
308.15 K, 100 kPa, x1 = 9.568e-05	–	0.725
308.15 K, 100 kPa, x1 = 0.000202	–	0.727
308.15 K, 100 kPa, x1 = 0.0003808	–	0.73
308.15 K, 100 kPa, x1 = 0.0005628	–	0.733
308.15 K, 100 kPa, x1 = 0.0007322	–	0.737
308.15 K, 100 kPa, x1 = 0.0009239	–	0.74
308.15 K, 100 kPa, x1 = 0.001099	–	0.742
308.15 K, 100 kPa, x1 = 0.001363	–	0.746
308.15 K, 100 kPa, x1 = 0.001909	–	0.754
308.15 K, 101 kPa, x2 = 0.4982	–	92
308.15 K, 101.3 kPa, x1 = 0.0009038	–	0.737
308.15 K, 101.3 kPa, x1 = 0.00092	–	0.733
308.15 K, 101.3 kPa, x1 = 0.000929	–	0.733
308.15 K, 101.3 kPa, x1 = 0.001008	–	0.74
308.15 K, 101.3 kPa, x1 = 0.001815	–	0.748
308.15 K, 101.3 kPa, x1 = 0.00182	–	0.754
308.15 K, 101.3 kPa, x1 = 0.001822	–	0.751
308.15 K, 101.3 kPa, x1 = 0.001824	–	0.747
310.15 K, 101.3 kPa, x1 = 0.0009038	–	0.71
310.15 K, 101.3 kPa, x1 = 0.00092	–	0.705
310.15 K, 101.3 kPa, x1 = 0.000929	–	0.704
310.15 K, 101.3 kPa, x1 = 0.001008	–	0.712
310.15 K, 101.3 kPa, x1 = 0.001815	–	0.722
310.15 K, 101.3 kPa, x1 = 0.00182	–	0.728
310.15 K, 101.3 kPa, x1 = 0.001822	–	0.722
310.15 K, 101.3 kPa, x1 = 0.001824	–	0.717
313.15 K, 100 kPa, x1 = 9.568e-05	–	0.658
313.15 K, 100 kPa, x1 = 0.000202	–	0.66
313.15 K, 100 kPa, x1 = 0.0003808	–	0.663
313.15 K, 100 kPa, x1 = 0.0005628	–	0.665
313.15 K, 100 kPa, x1 = 0.0007322	–	0.668
313.15 K, 100 kPa, x1 = 0.0009239	–	0.671
313.15 K, 100 kPa, x1 = 0.001099	–	0.673
313.15 K, 100 kPa, x1 = 0.001363	–	0.677
313.15 K, 100 kPa, x1 = 0.001909	–	0.686
318.15 K, 101.3 kPa, x1 = 0.0009038	–	0.613
318.15 K, 101.3 kPa, x1 = 0.00092	–	0.608
318.15 K, 101.3 kPa, x1 = 0.000929	–	0.607
318.15 K, 101.3 kPa, x1 = 0.001008	–	0.615
318.15 K, 101.3 kPa, x1 = 0.001815	–	0.624
318.15 K, 101.3 kPa, x1 = 0.00182	–	0.625
318.15 K, 101.3 kPa, x1 = 0.001822	–	0.623
318.15 K, 101.3 kPa, x1 = 0.001824	–	0.618
